Laboratory results: patent US11185527B2, “Methods and compositions relating to steroid hormone receptor-dependent cancers” (Wayne State University, priority 2017, dated 2021)

Legend:
[1] = system: 22Rv1 CRPC cells; experiment: Colony growth assay; type: cell-based, human
Description: FIGS. 4A, 4B, 4C, 4D, 4E, 4F, 4G, and 4H relate to inhibition of AR-dependent PC/CRPC clonogenic survival and cell growth by KCI807 and comparison with enzalutamide. FIG. 4A is an image of 22Rv1 cells that were seeded in phenol red-free growth media and treated with the indicated concentration of KCI807, replenishing the treatments every 48h. Colonies were stained with crystal violet 10 days after plating. Treatments were conducted in triplicate. Representative images are shown. FIG. 4B is a graph showing data from replicate colony formation assays shown in FIG. 4A are plotted as a histogram. Each bar represents the average number of colonies for each triplicate treatment. Cells were trypsinized, and 1000 cells/well were seeded in poly-D-lysine coated 6-well plates in phenol red-free regular growth media. The cells were treated with the indicated concentration of KCI807, which was replenished every 48h. The cells were grown at 37° C. in 5% CO2 for 10 days until colonies-grew to the desired size in the untreated control wells. Colonies were fixed with methanol and stained with crystal violet. Each treatment was conducted in triplicate and the number of colonies was counted using the GelCount™ colony counter and a 350 size cutoff.

[2] = Intracellular concentration of compounds by LC-MS/MS (relative stability); type: in vitro ADME; conditions: media concentration of 2 uM compound
Description: The suspended cells were sonicated to cell lysate, and then 1000 μL ethyl acetate was added. The mixture was vortex-mixed for 15 minutes and centrifuged at 14000 rpm at […] for 15 min. 950 uL of the supernatant was transferred to a new 1.7 mL centrifuge tube, and dried under a steam of nitrogen at room temperature. The sample was then reconstituted with 100 μL 40% acetonitrile, and 5 μL was injected into the LC-MS/MS system. Measured concentrations were normalized to cell protein concentrations.

[3] = system: hormone-independent promoter activation by the splice variant AR-V7; experiment: Gal4-ELK1 reporter activation by AR-V7 in transfected HeLa cells; type: cell-based; conditions: 10 uM or 20 uM
Description: FIG. 10 is a graph showing results of co-transfection of HeLa cells with the Gal4-TATA-Luc construct and the Gal4-ELK1 fusion protein expression plasmid. The cells were also co-transfected with either the AR-V7 expression plasmid (pLVX-AR-V7) or the corresponding vector plasmid (pLVX). At the time of transfection with AR-V7, the cells were also treated with KCI807 (10 uM or 20 uM) or with the vehicle control. Promoter activity was measured in terms of reporter luciferase activity. In all panels, the error bars represent standard deviation of experimental triplicates. *P<0.05
Hela Cells were plated in a 24-well plate at a concentration of 75,000 cells/well in antibiotic-free red DMEM. The following day the cells were transfected with a total of 300 ng of plasmid DNA/well using Lipofectamine 2000. The cells were incubated for 24h then lysed using luciferase assay lysis buffer 5X from Promega. The luciferase activity of the cell lysates were measured using firefly substrate from Promega and a luminometer (Lumat LB9501, Berthold, Wildbad, Germany).
The relatively higher concentrations of the compound required for this inhibition is likely because AR-V7 was overexpressed in the assay system.

[4] = system: H1650 (lung adenocarcinoma cells), AR-negative; experiment: Cell monolayer growth assay (MTT); type: cell-based
Description: FIG. 12D is a graph showing the effect of KCI807 on in vitro growth of AR-negative cell line H1650 cells measured by the MTT assay. All values were plotted relative to the Day zero value. Cells were trypsinized and 3000-4000 cells/well were seeded in 96-well plates coated with poly-D-lysine. The cells were seeded in phenol red-free medium supplemented with 10% FBS, 100 units/ml penicillin, 100 μg/ml streptomycin, 2 mM L-glutamine mixture and sodium pyruvate (1 mM) for LNCaP cells and phenol red-free medium supplemented with 10% FBS, 100 units/ml penicillin, 100 μg/ml streptomycin and 2 mM L-glutamine mixture for VCaP, 22Rv1, DU145, HeLa, HEK293 and H1650 cells. The cells were grown at 37° C. in 5% CO2. Twenty four hours after seeding in the 96-well plates, the cells were treated with the indicated concentration of KCI807 or DMSO (vehicle). The cells were re-treated on Day 3 by removing half the volume of medium and replacing it with fresh treated medium. Cell viability was determined using the MTT assay from day zero until day five. MTT (10 μL, 5 mg/mL) was added to each well and incubated for 2h at 37° C. The formazan crystal sediments were dissolved in 100 μL of DMSO, and the absorbance at 570 nm was measured using the BioTek Synergy 2 Microplate Reader (BioTek, Winooski, Vt.). The assay was conducted in sextuplicate wells and values were normalized to day zero.

[5] = system: protein level of AR or AR-V7; experiment: Western blot of AR in LNCaP, VCaP and 22Rv1 cells; type: cell-based; conditions: VCaP, 10 μM, 24h
Description: Protein lysates were extracted after 24h of treatment and probed using antibodies to AR and GAPDH (loading control).
The treated cells were washed once with phosphate buffered saline (PBS) and then lysed with RIPA buffer (150 mM NaCl, 1% Nonidet P-40, 0.5% sodium deoxycholate, 0.1% SDS, 50 mM Tris of pH 8.0) containing a protease inhibitor cocktail (Pierce, Thermo Fisher Scientific). The cell lysates were then incubated on ice for 40 minutes and vortexed every 10 minutes. Total protein concentrations were estimated using the Bradford Assay (Bio-Rad). Ten micrograms of each protein sample was heated at 95° C. for 5 minutes and resolved by electrophoresis on 8% polyacrylamide-SDS gels and electrophoretically transferred to PVDF membranes (Millipore, Billerica, Mass.). The membranes were then probed overnight at 4° C. with the appropriate primary antibody followed by the appropriate horseradish peroxidase-conjugated secondary antibody. The blots were then developed to visualize the protein bands using the HyGLO

SMILES: O=c1cc(-c2cccc(O)c2)oc2cccc(O)c12 [KCI807, 5,3′-dihydroxyflavone]
- colony growth inhibition (in words) ([1]; 22Rv1, beyond 125 nM compound): virtually completely inhibited
- IC50 ([1]; Homo sapiens, 22Rv1, 10 days, treatment replenished every 48h, read-out: IC50 of colony growth inhibition): 33.1 nM
- intracellular concentration between 1h and 6h [2]: unchanged
- inhibition of promoter activation by AR-V7 [3]: inhibited
- growth of H1650 cells [4]: did not appreciably affect the growth
- protein level of AR or AR-V7 [5]: in no case did KCI807 treatment alter the protein level
